Results taken from article PMC5421785, “Citrullination only infrequently impacts peptide binding to HLA class II MHC” (PLoS ONE, 2017).
Read-outs that look alike come from different tables or passages of the source. Square brackets hold non-standard residues; d marks the D form. Ends that are not written are not given here. Peptide text beside a SMILES is read from it. Cit = NC(=O)NCCC[C@H](N)C(=O)O

Key:
HLA-DRB1*01:01 = molecular target: T1, HLA-DRB1*01:01 (Homo sapiens, UniProt P01903+P01911, A100R/D57E/F55L/F60I/F76Y/I96L/L162R/M171V/P40L/Q125E/R42F/V115G/Y59C); assay: HLA class II peptide binding, inhibition of radiolabeled peptide binding to purified MHC
T1 construct: EBV transformed homozygous cell lines were used as sources of MHC molecules; endogenous in cells; host or cells: EBV transformed homozygous cell lines

HLA-DRB1*04:01 = molecular target: T2, HLA-DRB1*04:01 (Homo sapiens, UniProt P01903+P01911, A100K/A169T/F76Y/I96L/K127E/L162R/M171V/N62H/P40V/Q125Y/R42H/S133A/S149N/S66Y/V115G/V209L/W38E); assay: as above; conditions: for DRB1*04:01 binding capacity, WT/cit ratio: ratio of WT IC50 to Cit IC50, >1 = citrullination increases binding
T2 construct: EBV transformed homozygous cell lines were used as sources of MHC molecules; endogenous in cells; host or cells: EBV transformed homozygous cell lines

[1] = citrullinated 15-mer peptide (X = citrulline), purified HLA-DRB1*01:01, read-out: DRB1*01:01 binding capacity, Cit peptide (IC50 nM)
[2] = citrullinated 15-mer peptide (X = citrulline), purified HLA-DRB1*04:01, read-out: DRB1*04:01 binding capacity, Cit peptide (IC50 nM)
[3] = citrullinated 15-mer (X), purified MHC, inhibition of radiolabeled peptide binding, dash = IC50 >40,000 nM, read-out: DRB1*01:01 binding capacity, Cit peptide (IC50 nM)
[4] = citrullinated 15-mer (X), purified MHC, inhibition of radiolabeled peptide binding, dash = IC50 >40,000 nM, read-out: DRB1*04:01 binding capacity, Cit peptide (IC50 nM)
[5] = wild-type (unmodified Arg) 15-mer peptide, purified HLA-DRB1*01:01, read-out: DRB1*01:01 binding capacity, WT peptide (IC50 nM)
[6] = wild-type (unmodified Arg) 15-mer peptide, purified HLA-DRB1*04:01, read-out: DRB1*04:01 binding capacity, WT peptide (IC50 nM)

| Compound | IC50 (HLA-DRB1*01:01; [1]) [nM] | IC50 (HLA-DRB1*04:01; [2]) [nM] | IC50 (HLA-DRB1*01:01; [5]) [nM] | IC50 (HLA-DRB1*04:01; [6]) [nM] | also measured |
| --- | --- | --- | --- | --- | --- |
| CC(C)[C@H](NC(=O)[C@H](CCC(N)=O)NC(=O)[C@H](CCCNC(=N)N)NC(=O)[C@H](CCCNC(N)=O)NC(=O)[C@H](Cc1ccc(O)cc1)NC(=O)[C@H](CCC(=O)O)NC(=O)[C@@H](NC(=O)[C@H](CO)NC(=O)[C@H](CCC(=O)O)NC(=O)[C@H](CCC(N)=O)NC(=O)[C@H](CCCCN)NC(=O)[C@H](C)NC(=O)[C@@H](N)CCC(N)=O)[C@@H](C)O)C(=O)N[C@@H](CCC(N)=O)C(=O)N[C@@H](CO)C(=O)O [QAKQESTEYXRQVQS] (H-QAKQESTEY[Cit]RQVQS-OH) | 9030 | > 40000 |  |  |  |
| CSCC[C@H](N)C(=O)N[C@@H](C)C(=O)N[C@@H](CCCNC(=N)N)C(=O)N[C@@H](Cc1c[nH]cn1)C(=O)N[C@@H](CC(C)C)C(=O)N[C@@H](CCCNC(N)=O)C(=O)N[C@@H](CCC(=O)O)C(=O)N[C@@H](Cc1ccc(O)cc1)C(=O)N[C@@H](CCC(N)=O)C(=O)N[C@@H](CC(=O)O)C(=O)N[C@@H](CC(C)C)C(=O)N[C@@H](CC(C)C)C(=O)N[C@@H](CC(N)=O)C(=O)N[C@H](C(=O)N[C@@H](CCCCN)C(=O)O)C(C)C [MARHLXEYQDLLNVK] (H-MARHL[Cit]EYQDLLNVK-OH) | 577 | 3130 |  |  |  |
| CC(C)C[C@H](NC(=O)[C@H](CC(C)C)NC(=O)[C@H](CCCNC(=N)N)NC(=O)[C@@H](NC(=O)CNC(=O)[C@@H]1CCCN1C(=O)[C@@H](NC(=O)[C@H](CO)NC(=O)[C@H](CO)NC(=O)[C@H](CCCNC(N)=O)NC(=O)[C@H](CC(C)C)NC(=O)[C@H](CCCNC(=N)N)NC(=O)[C@@H](NC(=O)[C@H](C)NC(=O)[C@@H](N)CO)C(C)C)C(C)C)C(C)C)C(=O)O [SAVRLXSSVPGVRLL] (H-SAVRL[Cit]SSVPGVRLL-OH) |  |  |  |  | IC50 (HLA-DRB1*01:01; [3]): 0.7 nM; IC50 (HLA-DRB1*04:01; [4]): 11 nM |
| CSCC[C@H](NC(=O)[C@H](CCC(=O)O)NC(=O)[C@H](CCC(=O)O)NC(=O)[C@H](CCC(=O)O)NC(=O)[C@H](Cc1ccc(O)cc1)NC(=O)[C@H](CC(C)C)NC(=O)[C@H](CC(=O)O)NC(=O)CNC(=O)[C@@H](N)CC(C)C)C(=O)N[C@@H](CCCNC(=N)N)C(=O)N[C@@H](CCC(=O)O)C(=O)N[C@@H](CC(C)C)C(=O)N[C@@H](CCCNC(N)=O)C(=O)N[C@@H](CCCNC(=N)N)C(=O)N[C@@H](CCC(N)=O)C(=O)O [LGDLYEEEMRELXRQ] |  |  |  |  | IC50 (HLA-DRB1*01:01; [3]): 12500 nM; IC50 (HLA-DRB1*04:01; [4]): > 40000 nM |
| STEYRRQVQSLTCEV [Vimentin 316 WT] |  |  | 138 | 600 |  |
| AAGVKGDRGETGAVG [Collagen 1051 WT] |  |  | 1150 | 25200 |  |
| N=C(N)NCCC[C@H](NC(=O)[C@H](CCC(=O)O)NC(=O)CNC(=O)[C@@H]1CCCN1C(=O)[C@H](Cc1ccccc1)NC(=O)CNC(=O)[C@H](CCCNC(N)=O)NC(=O)[C@H](CCC(=O)O)NC(=O)CNC(=O)[C@H](CCCNC(=N)N)NC(=O)[C@@H]1CCCN1C(=O)CN)C(=O)NCC(=O)N[C@@H](CO)C(=O)N1CCC[C@H]1C(=O)O [GPRGEXGFPGERGSP] (H-GPRGE[Cit]GFPGERGSP-OH) | 18000 | > 40000 |  |  |  |
| CC(C)C[C@H](NC(=O)CNC(=O)[C@H](CCC(N)=O)NC(=O)[C@H](C)NC(=O)CN)C(=O)N[C@@H](CCC(N)=O)C(=O)NCC(=O)N1CCC[C@H]1C(=O)N[C@@H](CCCNC(N)=O)C(=O)NCC(=O)N[C@@H](CC(C)C)C(=O)N1CCC[C@H]1C(=O)NCC(=O)N[C@H](C(=O)N1CCC[C@H]1C(=O)O)[C@@H](C)O [GAQGLQGPXGLPGTP] (H-GAQGLQGP[Cit]GLPGTP-OH) | 578 | > 40000 |  |  |  |
| GIAGAPGFPGPRGPP [Collagen 426 WT] |  |  | 239 | > 40000 |  |
| LPGARGLTGRPGDAG [Collagen 556 WT] |  |  | 851 | > 40000 |  |
| C[C@H](NC(=O)CNC(=O)[C@H](CCCCN)NC(=O)[C@@H]1CCCN1C(=O)CNC(=O)[C@@H](N)CC(=O)O)C(=O)N[C@@H](CCCNC(=N)N)C(=O)NCC(=O)N[C@@H](CC(=O)O)C(=O)N[C@@H](CO)C(=O)NCC(=O)N1CCC[C@H]1C(=O)N1CCC[C@H]1C(=O)NCC(=O)N[C@@H](CCCNC(N)=O)C(=O)O [DGPKGARGDSGPPGX] (H-DGPKGARGDSGPPG[Cit]-OH; N-terminus and C-terminus assumed) | > 40000 | > 40000 |  |  | DRB1*04:01 binding capacity, WT/cit ratio (HLA-DRB1*04:01): 0.548 |
| CC(C)[C@H](NC(=O)[C@H](Cc1ccc(O)cc1)NC(=O)[C@H](CO)NC(=O)[C@H](CCCNC(N)=O)NC(=O)[C@H](CO)NC(=O)[C@H](CO)NC(=O)[C@H](CO)NC(=O)[C@@H]1CCCN1C(=O)[C@H](CCCNC(=N)N)NC(=O)[C@H](CO)NC(=O)[C@H](C)N)C(=O)N[C@H](C(=O)N[C@H](C(=O)N[C@@H](CO)C(=O)N[C@H](C(=O)O)[C@@H](C)O)[C@@H](C)O)[C@@H](C)O [ASRPSSSXSYVTTST] (H-ASRPSSS[Cit]SYVTTST-OH) |  |  |  |  | IC50 (HLA-DRB1*01:01; [3]): 12900 nM; IC50 (HLA-DRB1*04:01; [4]): 1630 nM |
| CC[C@H](C)[C@H](NC(=O)CNC(=O)[C@H](C)NC(=O)[C@H](C)NC(=O)CNC(=O)[C@H](CCCNC(N)=O)NC(=O)[C@H](CCC(=O)O)NC(=O)CNC(=O)[C@@H]1CCCN1C(=O)[C@H](CCSC)NC(=O)CNC(=O)[C@H](CCC(N)=O)NC(=O)[C@H](CC(C)C)NC(=O)CNC(=O)[C@@H]1CCCN1)C(=O)O [PGLQGMPGEXGAAGI] (H-PGLQGMPGE[Cit]GAAGI-OH) | 55 | 4170 |  |  |  |
| ANYQDTIGRLQDEIQ [Vimentin 356 WT] |  |  | 625 | 11500 |  |
| CC(C)C[C@H](NC(=O)[C@H](CCCNC(N)=O)NC(=O)[C@@H](NC(=O)[C@H](C)NC(=O)[C@H](CO)NC(=O)[C@H](CO)NC(=O)[C@H](CCCNC(=N)N)NC(=O)[C@@H](NC(=O)[C@H](C)NC(=O)[C@H](Cc1ccc(O)cc1)NC(=O)[C@@H](NC(=O)CNC(=O)CNC(=O)[C@@H]1CCCN1C(=O)[C@@H](N)CO)C(C)C)[C@@H](C)O)C(C)C)C(=O)O [SPGGVYATRSSAVXL] (H-SPGGVYATRSSAV[Cit]L-OH) |  |  |  |  | IC50 (HLA-DRB1*01:01; [3]): 7.6 nM; IC50 (HLA-DRB1*04:01; [4]): 497 nM |
| CSCC[C@H](NC(=O)[C@H](Cc1ccc(O)cc1)NC(=O)[C@H](CCC(N)=O)NC(=O)[C@@H](N)CC(C)C)C(=O)N[C@@H](CCCNC(N)=O)C(=O)N[C@@H](C)C(=O)N[C@@H](CC(=O)O)C(=O)N[C@@H](CCC(N)=O)C(=O)N[C@@H](C)C(=O)N[C@@H](C)C(=O)NCC(=O)NCC(=O)N[C@@H](CC(C)C)C(=O)N[C@@H](CCCNC(=N)N)C(=O)N[C@@H](CCC(N)=O)C(=O)O [LQYMXADQAAGGLRQ] (H-LQYM[Cit]ADQAAGGLRQ-OH) |  |  |  |  | IC50 (HLA-DRB1*01:01; citrullinated peptide as listed (X at Cit position), read-out: DRB1*01:01 binding capacity Cit peptide (IC50 nM)): 16 nM; IC50 (HLA-DRB1*04:01; citrullinated peptide as listed (X at Cit position), read-out: DRB1*04:01 binding capacity Cit peptide (IC50 nM)): 69 nM |
| CSCC[C@H](NC(=O)[C@H](CCC(=O)O)NC(=O)[C@H](CCCNC(=N)N)NC(=O)[C@H](CCSC)NC(=O)[C@H](CCC(N)=O)NC(=O)[C@H](CCCNC(N)=O)NC(=O)[C@H](CCC(=O)O)NC(=O)[C@H](CC(C)C)NC(=O)[C@H](CO)NC(=O)[C@H](CCC(=O)O)NC(=O)[C@H](CC(N)=O)NC(=O)[C@@H](N)[C@@H](C)O)C(=O)N[C@@H](CCC(=O)O)C(=O)N[C@@H](CCC(=O)O)C(=O)N[C@@H](CC(N)=O)C(=O)O [TNESLEXQMREMEEN] (H-TNESLE[Cit]QMREMEEN-OH; N-terminus and C-terminus assumed) | > 40000 | > 40000 |  |  | DRB1*01:01 binding capacity, WT/cit ratio (HLA-DRB1*01:01; ratio of WT IC50 to Cit IC50, >1 = citrullination increases binding): 0.318; DRB1*04:01 binding capacity, WT/cit ratio (HLA-DRB1*04:01): 1.0 |
| AGEPGERGLKGHRGF [Collagen 1121 WT] |  |  | 85 | > 40000 |  |
| CC(C)C[C@H](NC(=O)CNC(=O)[C@@H](NC(=O)[C@H](Cc1ccccc1)NC(=O)CNC(=O)[C@H](CCCNC(N)=O)NC(=O)[C@H](Cc1c[nH]cn1)NC(=O)CN)[C@@H](C)O)C(=O)N[C@@H](CCC(N)=O)C(=O)NCC(=O)N[C@@H](CC(C)C)C(=O)N1CCC[C@H]1C(=O)NCC(=O)N1CCC[C@H]1C(=O)N1CCC[C@H]1C(=O)O [GHXGFTGLQGLPGPP] (H-GH[Cit]GFTGLQGLPGPP-OH) | 0.65 | 2340 |  |  |  |
| CC[C@H](C)[C@H](NC(=O)[C@H](CCCCN)NC(=O)[C@H](CC(N)=O)NC(=O)[C@H](CCC(N)=O)NC(=O)[C@H](CCC(N)=O)NC(=O)[C@H](CCC(=O)O)NC(=O)[C@H](CC(C)C)NC(=O)[C@H](Cc1ccccc1)NC(=O)[C@H](CCCNC(N)=O)NC(=O)[C@@H](NC(=O)[C@H](CCCCN)NC(=O)[C@H](CC(=O)O)NC(=O)[C@@H](NC(=O)[C@H](Cc1ccc(O)cc1)NC(=O)[C@@H](N)CC(N)=O)[C@@H](C)CC)C(C)C)C(=O)O [NYIDKVXFLEQQNKI] (H-NYIDKV[Cit]FLEQQNKI-OH) |  |  |  |  | IC50 (HLA-DRB1*01:01; [3]): 102 nM; IC50 (HLA-DRB1*04:01; [4]): 1210 nM |
